The text below walks through data of PubChem BioAssay (NCI).

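The compound was tested at five concentrations on cells cultured in 96-well plates, with a 48-hour exposure period. GI50 is the concentration that inhibits growth by half. TGI: total growth inhibition.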

Test systems include UACC-62 melanoma; IGROV1 ovarian; SW-620 colon; SK-MEL-28 melanoma; BT-549 breast; SR leukemia; SK-OV-3 ovarian; SF-268 CNS; HS 578T breast; SF-295 CNS.
Common to all, as to assay: inhibition of tumour cell growth, NCI panel, 48 h

Turning to `O=C(/C=C/OC(=O)c1cccc(Cl)c1)c1ccc(Cl)cc1`, the GI50 with UACC-62 melanoma was more than 80.8 µM; with IGROV1 ovarian, more than 46.8 µM; in the test with SW-620 colon, 29.4 µM; with SK-MEL-28 melanoma, 58.1 µM; with BT-549 breast it was 30.3 µM; in the test on SR leukemia it was 22.9 µM. Also, the GI50 in the test on SK-OV-3 ovarian was 35.8 µM; with SF-268 CNS, 41.9 µM; in the test with HS 578T breast, 23.2 µM; with SF-295 CNS, 27.3 µM. For the same molecule, the TGI in the test on UACC-62 melanoma is more than 100 µM; in the test on IGROV1 ovarian, more than 100 µM; in the test with SW-620 colon, more than 82 µM; with SK-MEL-28 melanoma, more than 100 µM; in the test on BT-549 breast it was more than 77 µM; in the test with SR leukemia, more than 92 µM. Also, the TGI is more than 88.4 µM in the test on SK-OV-3 ovarian, more than 100 µM in the test on SF-268 CNS, more than 70.4 µM in the test with HS 578T breast and more than 80.1 µM in the test on SF-295 CNS.
In the case of `CCn1ccc(NS(=O)(=O)c2ccc(N)cc2)nc1=O`, the GI50 in the test with UACC-62 melanoma, with IGROV1 ovarian, in the test with SW-620 colon, in the test with SK-MEL-28 melanoma, with BT-549 breast and in the test with SR leukemia was more than 100 µM in each case. For the same molecule, the GI50 in the test with SK-OV-3 ovarian is more than 100 µM; with SF-268 CNS, more than 100 µM; with HS 578T breast it was 33.8 µM; in the test with SF-295 CNS, more than 100 µM. Besides, the TGI in the test on UACC-62 melanoma, in the test on IGROV1 ovarian, with SW-620 colon, in the test with SK-MEL-28 melanoma, in the test with BT-549 breast and with SR leukemia was more than 100 µM throughout. In addition, the TGI in the test on SK-OV-3 ovarian, in the test with SF-268 CNS, in the test with HS 578T breast and with SF-295 CNS was more than 100 µM throughout.
Regarding `CN(C)c1ccc2nc(CC(O)(C(F)(F)F)C(F)(F)F)ccc2c1`, the TGI in the test on UACC-62 melanoma, with IGROV1 ovarian, in the test with SW-620 colon, with SK-MEL-28 melanoma, with BT-549 breast and in the test with SK-OV-3 ovarian was more than 10 µM in each case. The TGI with SF-268 CNS, in the test with HS 578T breast and in the test with SF-295 CNS was more than 10 µM in each case.
Turning to `COc1cnc2c(c1)C(=O)c1c-2n(CCCN2CCNCC2)c(=O)c2cc([N+](=O)[O-])ccc12`, the GI50 was 0.176 µM in the test with UACC-62 melanoma; 1.42 µM with SK-MEL-28 melanoma; 1.4 µM with BT-549 breast; 0.0424 µM in the test with SR leukemia; 0.239 µM in the test with SK-OV-3 ovarian; 1.82 µM in the test with HS 578T breast. In addition, the GI50 in the test on SF-295 CNS was 0.126 µM. For the same molecule, the TGI in the test on UACC-62 melanoma stood at 1.57 µM; in the test on SK-MEL-28 melanoma, 3.12 µM; in the test with BT-549 breast, 9.7 µM; in the test with SR leukemia, 1.9 µM; in the test on SK-OV-3 ovarian, 0.771 µM; in the test with HS 578T breast, 4.6 µM. Besides, the TGI in the test with SF-295 CNS was determined as 1.07 µM.
Consider `Nc1ccc(Sc2c3ccccc3nc3ccccc23)cc1`, for which the TGI in the test with UACC-62 melanoma stood at 30.5 µM; in the test with IGROV1 ovarian, 37.6 µM; with SW-620 colon it was 39 µM; in the test on SK-MEL-28 melanoma, 24.8 µM; with BT-549 breast, 27.4 µM; with SR leukemia, 32.4 µM. The TGI in the test with SK-OV-3 ovarian was 59.8 µM; in the test on SF-268 CNS it was 40.5 µM; with HS 578T breast, more than 68.4 µM; in the test on SF-295 CNS, 47.5 µM.
For the molecule `CN1CCN(Cc2cc(NC(=O)c3cccc(C#Cc4cccc5[nH]nc(N)c45)c3)cc(C(F)(F)F)c2)CC1`, the GI50 is 1.69 µM in the test with UACC-62 melanoma; 2.05 µM in the test with IGROV1 ovarian; 1.5 µM with SW-620 colon; 1.56 µM in the test with SK-MEL-28 melanoma; 1.97 µM with BT-549 breast; 1.94 µM in the test with SK-OV-3 ovarian. In the test on SF-268 CNS, the GI50 was 1.53 µM. Also, the TGI came out at 3.22 µM in the test on UACC-62 melanoma; 4.07 µM in the test with IGROV1 ovarian; 2.89 µM in the test on SW-620 colon; 2.94 µM in the test with SK-MEL-28 melanoma; 3.62 µM with BT-549 breast; 3.54 µM with SK-OV-3 ovarian. For the same molecule, the TGI with SF-268 CNS is 3.15 µM.
`Cc1cc(=O)oc2cc(OC/C=C3\CCC(=O)O3)ccc12`: the GI50 in the test on UACC-62 melanoma is 13.8 µM; with IGROV1 ovarian, 13.2 µM; with SW-620 colon, 5.56 µM; in the test with SK-MEL-28 melanoma, 16.4 µM; in the test with BT-549 breast it was 15.8 µM; in the test with SK-OV-3 ovarian, 28.2 µM. Also, the GI50 was 15.3 µM in the test with SF-268 CNS, 22.9 µM in the test with HS 578T breast and 59 µM in the test on SF-295 CNS. For the same molecule, the TGI with UACC-62 melanoma is 28.7 µM; in the test with IGROV1 ovarian, 28.7 µM; in the test on SW-620 colon, 28 µM; in the test with SK-MEL-28 melanoma it was 33.6 µM; with BT-549 breast, 40 µM; in the test with SK-OV-3 ovarian, more than 76 µM. The TGI is 50.2 µM in the test with SF-268 CNS, more than 87.4 µM in the test on HS 578T breast and more than 100 µM in the test on SF-295 CNS.
As for `[CH3][Sn]([CH3])([CH3])[O][N+](=O)[O-]`, the GI50 in the test with UACC-62 melanoma is 3.91 µM; in the test with IGROV1 ovarian it was 2.39 µM; in the test on SW-620 colon it was 2.06 µM; in the test with SK-MEL-28 melanoma, more than 10 µM; in the test on SR leukemia, 1.48 µM; with SK-OV-3 ovarian, more than 10 µM. Also, the GI50 is 3.63 µM with SF-268 CNS, 1.73 µM with HS 578T breast and 9.92 µM in the test on SF-295 CNS. Moreover, the TGI in the test on UACC-62 melanoma was more than 10 µM; in the test on IGROV1 ovarian, more than 10 µM; with SW-620 colon, 4.8 µM; with SK-MEL-28 melanoma, more than 10 µM; in the test with SR leukemia it was 3.33 µM; in the test with SK-OV-3 ovarian, more than 10 µM. For the same molecule, the TGI in the test on SF-268 CNS, in the test with HS 578T breast and in the test with SF-295 CNS was more than 10 µM each time.
Turning to `COCCn1cc(-c2csc(-c3c[nH]c4ccc(Br)cc34)n2)c2cccnc21`, the GI50 with UACC-62 melanoma was 4.2 µM; in the test with IGROV1 ovarian, 4.06 µM; in the test on SW-620 colon, 3.3 µM; in the test on SK-MEL-28 melanoma, 4.79 µM; in the test with BT-549 breast, 4.8 µM; with SR leukemia it was 3.25 µM. Besides, the results for the GI50 with SK-OV-3 ovarian, in the test on HS 578T breast and with SF-295 CNS were 13.9 µM, 4.44 µM and 2.83 µM, respectively. Moreover, the TGI was more than 100 µM with UACC-62 melanoma; more than 100 µM in the test with IGROV1 ovarian; more than 100 µM in the test with SW-620 colon; more than 100 µM in the test on SK-MEL-28 melanoma; 27 µM in the test with BT-549 breast; more than 100 µM in the test with SR leukemia. Moreover, the TGI with SK-OV-3 ovarian was more than 100 µM; in the test with HS 578T breast, 43 µM; in the test on SF-295 CNS, more than 100 µM.
As for `Cc1cc(Cl)cc(Cc2cc(Cl)cc(C)c2O)c1O`, the GI50 in the test on UACC-62 melanoma was 2.28 µM; in the test with IGROV1 ovarian, 5.18 µM; with SK-MEL-28 melanoma, 3.46 µM; in the test with BT-549 breast, 2.46 µM; with SR leukemia it was 2.58 µM; in the test with SK-OV-3 ovarian, 3.18 µM. In addition, the GI50 in the test on SF-268 CNS was 2.9 µM; in the test with HS 578T breast, 2.55 µM; in the test on SF-295 CNS, 2.49 µM. The TGI worked out at 10.6 µM with UACC-62 melanoma; 29.5 µM in the test with IGROV1 ovarian; 15.2 µM in the test with SK-MEL-28 melanoma; 7.02 µM in the test with BT-549 breast; 10.8 µM in the test with SR leukemia; 8.89 µM with SK-OV-3 ovarian. Moreover, the TGI with SF-268 CNS is 16.8 µM; with HS 578T breast it was 7.75 µM; in the test on SF-295 CNS, 7.14 µM.
Consider `CCCCCCCC(=O)[O][Hg][CH2]C1COC([CH2][Hg][O]C(=O)CCCCCCC)CO1` (stereo not drawn), for which the GI50 is 17.5 µM with UACC-62 melanoma; 18 µM in the test on IGROV1 ovarian; 2.91 µM with SW-620 colon; 14 µM with SK-MEL-28 melanoma; 11.1 µM in the test with BT-549 breast; 13.2 µM in the test with SK-OV-3 ovarian. In addition, the figures for the GI50 in the test with SF-268 CNS, in the test on HS 578T breast and in the test with SF-295 CNS were 18.2 µM, 16.8 µM and 19 µM, respectively. For the same molecule, the TGI turned out to be 45.3 µM with UACC-62 melanoma; 38.3 µM with IGROV1 ovarian; 19.5 µM with SW-620 colon; 27 µM with SK-MEL-28 melanoma; 23.1 µM with BT-549 breast; 27.6 µM with SK-OV-3 ovarian. Also, the results for the TGI in the test on SF-268 CNS, with HS 578T breast and in the test with SF-295 CNS were 36.9 µM, 46.3 µM and 36.5 µM, respectively.
Regarding `O=[N+]([O-])c1cc2c([N+](=O)[O-])cccc2o1`, the TGI with UACC-62 melanoma stood at 27.7 µM; in the test on SW-620 colon it was 7.99 µM; in the test with SK-MEL-28 melanoma, 16.8 µM; in the test with BT-549 breast it was 31.9 µM; in the test with SK-OV-3 ovarian it was 31.3 µM; in the test on SF-268 CNS, 31.1 µM. Further, the TGI worked out at 43.8 µM in the test on HS 578T breast and 42.4 µM in the test on SF-295 CNS.
For the molecule `FC(F)(F)c1cc(Nc2ccc3cc(OCCCN4CCOCC4)ccc3n2)ccc1Cl`, the GI50 with IGROV1 ovarian is 2.62 µM; in the test on SW-620 colon, 1.85 µM; in the test with SK-MEL-28 melanoma, 1.59 µM; in the test on BT-549 breast, 1.74 µM; with SR leukemia, 1.4 µM; in the test on SK-OV-3 ovarian, 2.21 µM. Further, the GI50 is 1.9 µM in the test on SF-268 CNS, 1.68 µM with HS 578T breast and 1.37 µM in the test on SF-295 CNS. Further, the TGI with IGROV1 ovarian was 7.49 µM; in the test with SW-620 colon it was 3.6 µM; with SK-MEL-28 melanoma, 3.39 µM; in the test with BT-549 breast, 4.07 µM; with SR leukemia, 4.73 µM; with SK-OV-3 ovarian it was 4.87 µM. Further, the TGI in the test on SF-268 CNS is 4.71 µM; with HS 578T breast, 4.36 µM; in the test with SF-295 CNS it was 3.17 µM.
